Key:
[1] = test system: 4T1 tumors; experiment: Tumor volume over time, bosentan pre-treatment plus anti-PD-1/anti-CTLA-4 (Example 5); type: in vivo, mice; details: pre-treated with bosentan 1 mg/kg, then immunotherapy cocktail
Protocol: Syngeneic tumor models and treatment protocols. Orthotopic models for murine mammary tumors were generated by implantation of 5×10^4 4T1 cancer cells in 40 μL of serum-free medium into the third mammary fat pad of 6-8 weeks-old BALB/c mice. Mice were purchased from the Cyprus Institute of Neurology and Genetics and all in vivo experiments were conducted in accordance with the animal welfare regulations and guidelines of the Republic of Cyprus and the European Union (European Directive 2010/63/EE and Cyprus Legislation for the protection and welfare of animals, Laws 1994-2013) under a license acquired and approved (No CY/EXP/PR.L2/2018, CY/EXP/PR.L14/2019, CY/EXP/PR.L15/2019, CY/EXP/PR.L03/2020) by the Cyprus Veterinary Services committee, the Cyprus national authority for monitoring animal research for all academic institutions.
Tranilast at 200 mg/kg, bosentan at 1 mg/kg, or equal volume of diluent (control group) was administered by intraperitoneal injection (i.p.) once a day for 14 days, starting from once the tumor volumes reached an average size of 5 mm diameter. […]
Planar dimensions (x, y) of tumor were monitored every 2-3 days using a digital caliper and tumor volume was estimated from the volume of an ellipsoid and assuming that the third dimension, z, is equal to the sqrt(x y). […]

[2] = test system: spontaneous 4T1 metastases; experiment: Survival of mice with spontaneous metastases after surgical removal of primary tumors; type: in vivo; details: 1 mg/kg bosentan combined with ICB cocktail, n=8-10
Protocol: (§1) To determine if a stiffness-reducing and hypoxia-reducing (blood flow-increasing) regimen of bosentan could enhance the efficacy of an ICB cocktail of anti-PD-1 (mouse monoclonal anti-PD-1 CD279, clone RMP1-14, BioXCell) and anti-CTLA-4 (mouse monoclonal anti-CTLA-4 CD152, clone 9D9, BioXCell) antibodies, mice bearing primary tumors in a neo-adjuvant setting were administered various treatments. Therapy was administered before removing the primary tumors surgically to assess mice survival against spontaneous metastases that arose on treatment. For the combinatorial treatment with bosentan and Immunotherapy studies, bosentan 1 mg/kg or equal volume of diluent (control group) was administered by intraperitoneal injection (i.p.) once a day for 14 days, starting from once the tumor volumes reached an average size of 5 mm diameter. Immunotherapy was administrated as a cocktail of 10 mg/kg anti-PD-1 (CD279, clone RMP1-14, BioXCell) and 5 mg/kg anti-CTLA-4 (CD152, clone 9D9) following dilution in the recommended InVivoPure pH 7.0 Dilution Buffer (BioXCell). The immunotherapy cocktail was administered i.p. when tumors reached an average size of 200 mm^3 every three days for three doses. For the immunotherapy studies, animals were also treated with a non-targeting isotype control antibody (BioXCell). Primary tumors were excised when they reached an average size of 700 mm^3 and the tissue was sutured for the study of the metastatic tumors. Planar dimensions (x, y) of tumor were monitored every 2-3 days using a digital caliper and tumor volume was estimated from the volume of an ellipsoid and assuming that the third dimension, z, is equal to […]. For the overall survival studies, the ending point was the time to mouse death. […] In the E0771 study, 8 out of 10 mice initiated survived. […] The remaining five mice were rechallenged with a second inoculation of E0771 cells and the tumor growth rates were compared against healthy age-matched control mice.

[3] = test system: spontaneous E0771 metastases; experiment: as above; type: in vivo
Protocol: as §1

[4] = test system: E0771 tumors; experiment: Primary tumor growth, bosentan plus ICB cocktail, neo-adjuvant setting; type: in vivo, mice; details: 1 mg/kg bosentan combined with ICB cocktail (10 mg/kg anti-PD-1, 5 mg/kg anti-CTLA-4); n=10
Protocol: To determine if a stiffness-reducing and hypoxia-reducing (blood flow-increasing) regimen of bosentan could enhance the efficacy of an ICB cocktail of anti-PD-1 (mouse monoclonal anti-PD-1 CD279, clone RMP1-14, BioXCell) and anti-CTLA-4 (mouse monoclonal anti-CTLA-4 CD152, clone 9D9, BioXCell) antibodies, mice bearing primary tumors in a neo-adjuvant setting were administered various treatments. Therapy was administered before removing the primary tumors surgically to assess mice survival against spontaneous metastases that arose on treatment. For the combinatorial treatment with bosentan and Immunotherapy studies, bosentan 1 mg/kg or equal volume of diluent (control group) was administered by intraperitoneal injection (i.p.) once a day for 14 days, starting from once the tumor volumes reached an average size of 5 mm diameter. Immunotherapy was administrated as a cocktail of 10 mg/kg anti-PD-1 (CD279, clone RMP1-14, BioXCell) and 5 mg/kg anti-CTLA-4 (CD152, clone 9D9) following dilution in the recommended InVivoPure pH 7.0 Dilution Buffer (BioXCell). […] Planar dimensions (x, y) of tumor were monitored every 2-3 days using a digital caliper and tumor volume was estimated from the volume of an ellipsoid and assuming that the third dimension, z, is equal to x y. […]

[5] = test system: 4T1 tumors; experiment: Shear wave elastography of tumor stiffness (Example 5); type: in vivo, mice; details: bosentan 1 mg/kg
From the text: Ultrasound elastography. Shear wave elestography was employed on a premier Philips EPIQ Elite Ultrasound system using a handheld linear array (eL 18-4) transducer. The method generates shear wave velocity via an acoustic push pulse, creating a color mapped elastogram where red indicates hard tissue and blue indicates soft tissue. A confidence display was also used as a reference of the highest shear wave quality of the user-defined region of interest (ROI). The average value of the tumor region was automatically generated by the system under default scanner settings and expressed in kPa. The settings that were used were: frequency, 10 MHz; power, 52%; B-mode gain, 22 dB; dynamic range, 62 dB. Shear wave imaging was performed prior to immunotherapy cocktail treatment on day 19 and as well on days 23 and 26.

Compound: COc1ccccc1Oc1c(NS(=O)(=O)c2ccc(C(C)(C)C)cc2)nc(-c2ncccn2)nc1OCCO [bosentan, 4-tert-butyl-N-[6-(2-hydroxy-ethoxy)-5-(2-methoxy-phenoxy)-2-(pyrimidin-2-yl)pyrimidin-4-yl] benzenesulfonamide]
- tumor volume as a function of time [1]: effectively stop further tumor growth
- survival, median overall survival (Kaplan-Meier) [2]: potentiated
- survival (Kaplan-Meier) ([3]; 1 mg/kg bosentan combined with ICB cocktail, E0771): potentiated
- mice surviving ([3]; E0771 study, bosentan combined with ICB cocktail): 8 out of 10
- macrometastases in the lungs ([3]; three surviving mice sacrificed, bosentan combined with ICB cocktail): no evidence of macrometasteses
- tumor growth [4]: potentiated tumor growth inhibition
- reduction of tumor stiffness [5]: more than half
- tumor stiffness (elastic modulus) after bosentan treatment [5]: ~20 kPa

Source: patent US20240024317A1, “CANCER TREATMENT USING BOSENTAN IN COMBINATION WITH A CHECKPOINT INHIBITOR” (Materia Therapeutics Inc., priority 2020, published 2024)
